Values of other authors as cited in patent publication US6569857B1, “Dietary supplement” (Drugtech Corporation, priority 1999, dated 2003).

Assays:
[1] = system: spermatozoal zona binding; settings: oral dosing over a three month period, male infertility
[2] = system: malondialdehyde concentrations; settings: oral vitamin E, male infertility patients; high levels are indicia of decreased sperm motility

In the case of vitamin E, the “increase in spermatozoal zona binding” value [1] is given as 50% and the malondialdehyde concentrations [2] is given as “significantly decreased”.
